Experiments:
PDL-1 protein [1] = test: Expression of PDL-1 protein by Western Blotting, RG2 cell line; type: cell-based; settings: RG2 cell line (rat malignant glioma cells), various concentrations of Z-BP, 24 hours, actin internal control
Method: (§1) The RG2 cell line (rat malignant glioma cells), […] cell line (glioblastoma stem cells), Paca2 cell line (human pancreatic cancer cells), […] cell line (human non-small-cell lung cancer cells), or B16 cell line (mouse melanocytoma cells) were independently treated with various concentrations of Z-BP for 24 hours. Then, the proteins in the cells were extracted and the expressions of PDL-1 protein in the cancer cells treated with Z-BP were detected by Western Blotting. In addition, the expression of actin was detected and used as the internal control.

PDL-1 protein [2] = test: Expression of PDL-1 protein by Western Blotting, 1×M cell line; type: cell-based; settings: 1×M cell line (glioblastoma stem cells), various concentrations of Z-BP, 24 hours, actin internal control
Method: as §1

PDL-1 protein [3] = test: Expression of PDL-1 protein by Western Blotting, Paca2 cell line; type: cell-based; settings: Paca2 cell line (human pancreatic cancer cells), various concentrations of Z-BP, 24 hours, actin internal control
Method: as §1

PDL-1 protein [4] = test: Expression of PDL-1 protein by Western Blotting, H1650 cell line; type: cell-based; settings: H1650 cell line (human non-small-cell lung cancer cells), various concentrations of Z-BP, 24 hours, actin internal control
Method: as §1

PDL-1 protein [5] = test: Expression of PDL-1 protein by Western Blotting, B16 cell line; type: cell-based; settings: B16 cell line (mouse melanocytoma cells), various concentrations of Z-BP, 24 hours, actin internal control
Method: as §1

[6] = tested on: stage three or four melanoma; settings: patients with stage three or four melanoma, Ipilimumab alone; cited from earlier work

In the case of CCC/C=C1\OC(=O)c2ccccc21 [Z-BP, Z-butylidenephthalide], the “expression of PDL-1 protein” value (PDL-1 protein [1]) is reported as “significantly decreased”, the “expression of PDL-1 protein” value (PDL-1 protein [2]) is reported as “significantly decreased” and the “expression of PDL-1 protein” value (PDL-1 protein [3]) is reported as “significantly decreased”. For the same compound, the “expression of PDL-1 protein” value (PDL-1 protein [4]) was “significantly decreased” and the “expression of PDL-1 protein” value (PDL-1 protein [5]) was “significantly decreased”.

For Ipilimumab, the “overall survival rate increased” value [6] is listed as 10.1 months.

From patent US10688128B2, “Use of Z-butylidenephthalide in activating autoimmune system” (EVERFRONT BIOTECH INC., priority 2016, dated 2020)
